Test results: article PMC6934949, “Calixmexitil: Calixarene-based Cluster of Mexiletine with Amplified Anti-myotonic Activity as A Novel Use-dependent Sodium Channel Blocker” (Iranian Journal of Pharmaceutical Research : IJPR, 2019)

System: T1, sodium channel (voltage-gated, skeletal muscle)
T1 construct: gene scn4a; native channel in single semitendinosus muscle fibers
Assay: three vaseline gap voltage clamp of Na+ current, phasic ([…] Hz use-dependent) block
Format: cell-based
Conditions: read-out: Phasic block IC 50

SMILES | IC50 [µM]
Cc1cccc(C)c1OCC(C)N (racemic) [Mexiletine, 1-(2,6-dimethylphenoxy)-2-propanamine] | 31
CC(N)COc1c2cccc1Cc1cccc(c1OCC(C)N)Cc1cccc(c1OCC(C)N)Cc1cccc(c1OCC(C)N)C2 (centres unmarked) [compound 4, Calixmexitil] | 3
